According to patent US9199984B2, “Inhibition of enzymes” (CHIESI FARMACEUTICI S.p.A., priority 2012, dated 2015):
pIC50: −log10 of the molar value. Where a name gives a salt, the structure may show the parent alone.

Biological target: T1, human neutrophil elastase (HNE) (Homo sapiens, UniProt P08246)
T1 construct: purchased Sigma E8140
T1 sequence (P08246 30-247 limits assumed): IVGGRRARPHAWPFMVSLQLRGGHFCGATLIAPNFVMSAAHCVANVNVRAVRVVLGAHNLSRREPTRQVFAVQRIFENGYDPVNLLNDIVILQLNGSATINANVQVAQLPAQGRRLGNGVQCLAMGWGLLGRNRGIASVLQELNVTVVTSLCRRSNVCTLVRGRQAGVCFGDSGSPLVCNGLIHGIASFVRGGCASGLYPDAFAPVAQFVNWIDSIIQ
Assay: HNE enzyme activity assay
Assay type: biochemical
Details: human leukocyte elastase, substrate MeOSuc-Ala-Ala-Pro-Val-AMC 100 μM, 25° C. for 30 minutes, fluorescence; read-out: HNE inhibition
Experimental: Compounds of the present invention were tested for potency in a human neutrophil elastase (HNE) enzyme activity assay.
Assays were performed in 96-well plates in a total assay volume of 100 μl. The final concentration of elastase enzyme (human leukocyte elastase, Sigma E8140) was 0.0036 units/well […]. The peptide substrate (MeOSuc-Ala-Ala-Pro-Val-AMC, Calbiochem #324740) was used at a final concentration of 100 μM. The final concentration of DMSO was 1% in the assay buffer (0.05M Tris.HCl, 0.1M NaCl, 0.1M CaCl2, 0.0005% brij-35, pH 7.5). The enzymatic reaction was started by addition of the enzyme and incubated at 25° C. for 30 minutes. After incubation, the reaction was stopped by addition of soybean trypsin inhibitor (Sigma T9003) at a final concentration of 50 μg/well. Fluorescence was measured using a Molecular Devices fluorescence plate reader using 380 nm excitation and 460 nm emission wavelengths.
A dose response to each compound was performed and the effect of compound in each experiment was expressed as a percentage inhibition of the control enzyme fluorescence. Dose response curves were plotted and compound potency (IC50) was determined. Compounds were tested in at least two separate experiments.

Compound | pIC50
CCOC(=O)Nc1nc2c(-c3cccc(C(F)(F)F)c3)c(C)c(-c3ccnn3-c3ccc(C#N)cc3)cn2n1 [Example 35, [6-[2-(4-Cyano-phenyl)-2H-pyrazol-3-yl]-7-methyl-8-(3-trifluoromethyl-phenyl)-[1,2,4]triazolo[1,5-a]pyridin-2-yl]-carbamic acid ethyl ester] | > 7.70
Cc1c(-c2ccnn2-c2ccc(C#N)cc2)cn2nc(Cc3ccc(S(C)(=O)=O)cc3)nc2c1-c1cccc(C(F)(F)F)c1 [Example 8, 4-{5-[2-(4-Methanesulfonyl-benzyl)-7-methyl-8-(3-trifluoromethyl-phenyl)-[1,2,4]triazolo[1,5-a]pyridin-6-yl]-pyrazol-1-yl}-benzonitrile] | 6.30 to 7.00
Cc1c(-c2ccnn2-c2ccc(C#N)cc2)cn2nc(NS(C)(=O)=O)nc2c1-c1cccc(C(F)(F)F)c1 [Example 27, N-[6-[2-(4-Cyano-phenyl)-2H-pyrazol-3-yl]-7-methyl-8-(3-trifluoromethyl-phenyl)-[1,2,4]triazolo[1,5-a]pyridin-2-yl]-methanesulfonamide] | 7.00 to 7.70
Cc1c(-c2ccnn2-c2ccc(C#N)cc2)cn2nc(NCCN(C)C)nc2c1-c1cccc(C(F)(F)F)c1 [Example 29, 4-{5-[2-(2-Dimethylamino-ethylamino)-7-methyl-8-(3-trifluoromethyl-phenyl)-[1,2,4]triazolo[1,5-a]pyridin-6-yl]-pyrazol-1-yl}-benzonitrile] | 7.00 to 7.70
CC(=O)N1CCC(NC(=O)Nc2nc3c(-c4cccc(C(F)(F)F)c4)c(C)c(-c4ccnn4-c4ccc(C#N)cc4)cn3n2)CC1 [Example 57, 1-(1-Acetyl-piperidin-4-yl)-3-[6-[2-(4-cyano-phenyl)-2H-pyrazol-3-yl]-7-methyl-8-(3-trifluoromethyl-phenyl)-[1,2,4]triazolo[1,5-a]pyridin-2-yl]-urea] | > 7.70
Cc1c(-c2ccnn2-c2ccc(C#N)cc2)cn2nc(Nc3ccc(S(C)(=O)=O)cc3)nc2c1-c1cccc(C(F)(F)F)c1 [Example 7, 4-{5-[2-(4-Methanesulfonyl-phenylamino)-7-methyl-8-(3-trifluoromethyl-phenyl)-[1,2,4]triazolo[1,5-a]pyridin-6-yl]-pyrazol-1-yl}-benzonitrile] | > 7.70
Cc1c(-c2ccnn2-c2ccc(C#N)cc2)cn2nc(NC(=O)CN3CC[N+](C)(C)CC3)nc2c1-c1cccc(C(F)(F)F)c1 [Example 19, 4-{[6-[2-(4-Cyano-phenyl)-2H-pyrazol-3-yl]-7-methyl-8-(3-trifluoromethyl-phenyl)-[1,2,4]triazolo[1,5-a]pyridin-2-ylcarbamoyl]-methyl}-1,1-dimethyl-piperazin-1-ium iodide] | > 7.70
Cc1c(-c2ccnn2-c2ccc(C#N)cc2)cn2nc(NC(=O)NC3CCN(S(C)(=O)=O)CC3)nc2c1-c1cccc(C(F)(F)F)c1 [Example 58, 1-[6-[2-(4-Cyano-phenyl)-2H-pyrazol-3-yl]-7-methyl-8-(3-trifluoromethyl-phenyl)-[1,2,4]triazolo[1,5-a]pyridin-2-yl]-3-(1-methanesulfonyl-piperidin-4-yl)-urea] | > 7.70
Cc1c(-c2nc(N)nn2-c2ccc(C#N)cc2)cn2nc(N)nc2c1-c1cccc(C(F)(F)F)c1 [Example 61, 4-{3-Amino-5-[2-amino-7-methyl-8-(3-trifluoromethyl-phenyl)-[1,2,4]triazolo[1,5-a]pyridin-6-yl]-[1,2,4]triazol-1-yl}-benzonitrile] | > 7.70
CC(=O)Nc1nc2c(-c3cccc(C(F)(F)F)c3)c(C)c(-c3ccnn3-c3ccc(C#N)cc3)cn2n1 [Example 26, N-[6-[2-(4-Cyano-phenyl)-2H-pyrazol-3-yl]-7-methyl-8-(3-trifluoromethyl-phenyl)-[1,2,4]triazolo[1,5-a]pyridin-2-yl]-acetamide] | > 7.70
Cc1c(-c2ccnn2-c2ccc(C#N)cc2)cn2nc(NC(=O)C[N+](C)(C)C)nc2c1-c1cccc(C(F)(F)F)c1 [Example 15, {[6-[2-(4-Cyano-phenyl)-2H-pyrazol-3-yl]-7-methyl-8-(3-trifluoromethyl-phenyl)-[1,2,4]triazolo[1,5-a]pyridin-2-ylcarbamoyl]-methyl}-trimethyl-ammonium bromide] | 7.00 to 7.70
Cc1c(-c2ccnn2-c2ccc(C#N)cc2)cn2ncnc2c1-c1cccc(C(F)(F)F)c1 [Example 3, 4-{5-[7-Methyl-8-(3-trifluoromethyl-phenyl)-[1,2,4]triazolo[1,5-a]pyridin-6-yl]-pyrazol-1-yl}-benzonitrile] | > 7.70
Cc1c(-c2ccnn2-c2ccc(C#N)cc2)cn2nc(NCCCC[N+](C)(C)C)nc2c1-c1cccc(C(F)(F)F)c1 [Example 34, {4-[6-[2-(4-Cyano-phenyl)-2H-pyrazol-3-yl]-7-methyl-8-(3-trifluoromethyl-phenyl)-[1,2,4]triazolo[1,5-a]pyridin-2-ylamino]-butyl}-trimethyl-ammonium formate] | > 7.70
Cc1c(-c2ccnn2-c2ccc(C#N)cc2)cn2c(=O)n(CC(=O)N(C)C)nc2c1-c1cccc(C(F)(F)F)c1 [Example 11, 2-[6-[2-(4-Cyano-phenyl)-2H-pyrazol-3-yl]-7-methyl-3-oxo-8-(3-trifluoromethyl-phenyl)-[1,2,4]triazolo[4,3-a]pyridin-2-yl]-N,N-dimethyl-acetamide] | < 6.30
Cc1c(-c2ccnn2-c2ccc(C#N)cc2)cn2nc(N)nc2c1-c1cccc(C(F)(F)F)c1 [Example 1, 4-{5-[2-Amino-7-methyl-8-(3-trifluoromethyl-phenyl)-[1,2,4]triazolo[1,5-a]pyridin-6-yl]-pyrazol-1-yl}-benzonitrile] | 7.00 to 7.70
Cc1c(-c2ccnn2-c2ccc(C#N)cc2)cn2nc(NCCCC(=O)N(C)CCN(C)C)nc2c1-c1cccc(C(F)(F)F)c1 [Example 60, 4-[6-[2-(4-Cyano-phenyl)-2H-pyrazol-3-yl]-7-methyl-8-(3-trifluoromethyl-phenyl)-[1,2,4]triazolo[1,5-a]pyridin-2-ylamino]-N-(2-dimethylamino-ethyl)-N-methyl-butyramide formate salt] | > 7.70
Cc1c(-c2ccnn2-c2ccc(C#N)cc2)cn2nc(NC(=O)CCC(=O)O)nc2c1-c1cccc(C(F)(F)F)c1 [Example 55, N-[6-[2-(4-Cyano-phenyl)-2H-pyrazol-3-yl]-7-methyl-8-(3-trifluoromethyl-phenyl)-[1,2,4]triazolo[1,5-a]pyridin-2-yl]-succinamic acid] | > 7.70
Cc1c(-c2ccnn2-c2ccc(C#N)cc2)cn2nc(NC(=O)CN3CCN(C)CC3)nc2c1-c1cccc(C(F)(F)F)c1 [Example 18, N-[6-[2-(4-Cyano-phenyl)-2H-pyrazol-3-yl]-7-methyl-8-(3-trifluoromethyl-phenyl)-[1,2,4]triazolo[1,5-a]pyridin-2-yl]-2-(4-methyl-piperazin-1-yl)-acetamide] | > 7.70
Cc1c(-c2ccnn2-c2ccc(C#N)cc2)cn2nc(NC(=O)CCC[N+](C)(C)C)nc2c1-c1cccc(C(F)(F)F)c1 [Example 17, {3-[6-[2-(4-Cyano-phenyl)-2H-pyrazol-3-yl]-7-methyl-8-(3-trifluoromethyl-phenyl)-[1,2,4]triazolo[1,5-a]pyridin-2-ylcarbamoyl]-propyl}-trimethyl-ammonium bromide] | > 7.70
Cc1c(-c2ccnn2-c2ccc(C#N)cc2)cn2nc(NC(=O)CN3CCOCC3)nc2c1-c1cccc(C(F)(F)F)c1 [Example 20, N-[6-[2-(4-Cyano-phenyl)-2H-pyrazol-3-yl]-7-methyl-8-(3-trifluoromethyl-phenyl)-[1,2,4]triazolo[1,5-a]pyridin-2-yl]-2-morpholin-4-yl-acetamide] | > 7.70
Cc1c(-c2ccnn2-c2ccc(C#N)cc2)cn2nc(NCCCCN(C)C)nc2c1-c1cccc(C(F)(F)F)c1 [Example 30, 4-{5-[2-(4-Dimethylamino-butylamino)-7-methyl-8-(3-trifluoromethyl-phenyl)-[1,2,4]triazolo[1,5-a]pyridin-6-yl]-pyrazol-1-yl}-benzonitrile] | > 7.70
Cc1c(-c2ccnn2-c2ccc(C#N)cc2)cn2nc(NC(=O)C[N+]3(C)CCN(C)CC3)nc2c1-c1cccc(C(F)(F)F)c1 [Example 25, 1-{[6-[2-(4-Cyano-phenyl)-2H-pyrazol-3-yl]-7-methyl-8-(3-trifluoromethyl-phenyl)-[1,2,4]triazolo[1,5-a]pyridin-2-ylcarbamoyl]-methyl}-1,4-dimethyl-piperazin-1-ium chloride] | 7.00 to 7.70
Cc1c(-c2ccnn2-c2ccc(C#N)cc2)cn2nc(NCCCCO)nc2c1-c1cccc(C(F)(F)F)c1 [Example 54, 4-{5-[2-(4-Hydroxy-butylamino)-7-methyl-8-(3-trifluoromethyl-phenyl)-[1,2,4]triazolo[1,5-a]pyridin-6-yl]-pyrazol-1-yl}-benzonitrile] | > 7.70
CNCCCC(=O)Nc1nc2c(-c3cccc(C(F)(F)F)c3)c(C)c(-c3ccnn3-c3ccc(C#N)cc3)cn2n1 [Example 56, N-[6-[2-(4-Cyano-phenyl)-2H-pyrazol-3-yl]-7-methyl-8-(3-trifluoromethyl-phenyl)-[1,2,4]triazolo[1,5-a]pyridin-2-yl]-4-methylamino-butyramide] | > 7.70
